# Source: US9783510B2, “Small molecule mediated transcriptional induction of E-cadherin” (Vanderbilt University, priority 2014, dated 2017)
# Test system: E-cadherin expression in SW620 cells
# Assay: E-cadherin expression, in-cell Western (ICW), SW620 cells
# Type: cell-based
# Conditions: Homo sapiens, SW-620, 24 h, change in expression level of E-cadherin in response to 10 μM compound, 24 hours, SW620 cells
# Method: SW620 and H520 cells (5×10^4/100 μL) were seeded in a 96-well plate prior to treatment. Cells were treated with 10 μM concentration of synthesized compound in quadruplicate for 24 hours in RPMI 1640 supplemented medium and 100 μg/mL penicillin-streptomycin. The cells were then fixed with 100% methanol for 20 minutes at 4° C. The wells were then washed 2 times with PBS, permeabilized in 2% bovine serum albumin (BSA) and 0.2% TritonX-100 in PBS for 30 minutes at room temperature with gentle agitation, and blocked in LI-COR blocking buffer for 30 minutes at room temperature with gentle agitation. The cells were then incubated with the following primary antibodies: anti-E-Cadherin (1:500) and anti-α-Tubulin (1:1000) diluted in blocking buffer (1:1 dilution in PBS) for 2 hours at room temperature with gentle agitation. The cells were washed 4 times in PBS-T for 5 minutes each, and then incubated with the following secondary antibodies conjugated to a fluorescent entity: IRDye 800-conjugated goat anti-rabbit IgG (1:1000) and IRDye-700-conjugated goat anti-mouse IgG (1:2000) in blocking buffer (1:1 dilution in PBS) with gentle agitation for 1 h at room temperature. The cells were washed 4 times in PBS-T for 5 minutes each followed by a single wash with PBS. All liquid was removed from the wells and the plates were visualized and analyzed on the Odyssey IR imaging system (LI-COR Biosciences).
# The assay was further optimized in the following manner. The cells were washed 2 times with PBS, fixed in 100% methanol at room temperature for 15 minutes, and again washed 2 times with PBS. The cells were then incubated with the following primary antibodies: anti-E-Cadherin (1:200) and anti-α-Tubulin (1:2000) diluted in ice cold 2% bovine serum albumin (BSA) and 0.2% TritonX-100 in PBS for 1 hour at room temperature with gentle agitation. The cells were washed 2 times in PBS and then incubated with the following secondary antibodies conjugated to a fluorescent entity: Licor 800-conjugated goat anti-rabbit IgG (1:2000) and IRDye-700-conjugated goat anti-mouse IgG (1:2000) in ice cold 2% BSA and 0.2% TritonX-100 in PBS with gentle agitation for 45 minutes at room temperature. The wells were washed 2 times in PBS, dried, and analyzed as previously mentioned.
# N-Acetamidoalkyl-5-arylisoxazole-3-carboxamide analogs were synthesized as described above. Changes in expression level of E-cadherin in response to 10 μM compound in SW620 cells was determined in a cell-based functional assay as described above, and the data are shown in Table III. The compound number corresponds to the compound numbers used in Table II.
# EC50 of inducement of E-cadherin expression in SW620 cells was determined in a cell-based functional assay as described above, and the data are shown in Table V. The compound number corresponds to the compound numbers used in Table IV.
row,SMILES,fold induction at 10 µM
1,"O=C(CCCC[C@@H]1SC[C@@H]2NC(=O)N[C@@H]21)NCCCNC(=O)c1cc(-c2ccccc2)on1 (stereo in doubt) [Compound 19, N-(3-(5-((3aS,4S,6aR)-2-oxohexahydro-1H-thieno[3,4-d]imidazol-4-yl)pentanamido)propyl)-5-phenylisoxazole-3-carboxamide]",1.25
2,"O=C(NCCNC(=O)c1cc(-c2ccccc2)on1)c1cccnc1 [Compound 3, N-(2-(nicotinamido)ethyl)-5-phenylisoxazole-3-carboxamide]",3.05
3,"N[C@@H](Cc1c[nH]c2ccccc12)C(=O)NCCNC(=O)c1cc(-c2ccccc2)on1 [Compound 6, (S)—N-(2-(2-amino-3-(1H-indol-3-yl)propanamido)ethyl)-5-phenylisoxazole-3-carboxamide]",0.92
4,"O=C(Cc1cccc(O)c1)NCCNC(=O)c1cc(-c2ccccc2)on1 [Compound 7, N-(2-(2-(3-hydroxyphenyl)acetamido)ethyl)-5-phenylisoxazole-3-carboxamide]",2.92
5,"O=C(NCCNC(=O)c1cc(-c2ccccc2)on1)c1cccc(O)c1 [Compound 8, N-(2-(3-hydroxybenzamido)ethyl)-5-phenylisoxazole-3-carboxamide]",2.44
6,"O=C(NCCNC(=O)c1cc(-c2ccccc2)on1)c1ccc(O)c(O)c1 [Compound 9, N-(2-(3,4-dihydroxybenzamido)ethyl)-5-phenylisoxazole-3-carboxamide]",1.89
7,"O=C(NCCNC(=O)c1cc(-c2ccccc2)on1)c1cc(O)cc(Br)c1 [Compound 10, N-(2-(3-bromo-5-hydroxybenzamido)ethyl)-5-phenylisoxazole-3-carboxamide]",2.35
8,"Cc1scnc1C(=O)NCCNC(=O)c1cc(-c2ccccc2)on1 [Compound 11, N-(2-(5-methylthiazole-4-carboxamido)ethyl)-5-phenylisoxazole-3-carboxamide]",2.08
9,"O=C(NCCNC(=O)c1cnccc1O)c1cc(-c2ccccc2)on1 [Compound 12, N-(2-(4-hydroxynicotinamido)ethyl)-5-phenylisoxazole-3-carboxamide]",3.25
10,"Nc1cccc(C(=O)NCCCNC(=O)c2cc(-c3ccccc3)on2)c1 [Compound 15, N-(3-(3-aminobenzamido)propyl)-5-phenylisoxazole-3-carboxamide]",3.94
11,"Nc1ccc(C(=O)NCCCNC(=O)c2cc(-c3ccccc3)on2)cc1O [Compound 16, N-(3-(4-amino-3-hydroxybenzamido)propyl)-5-phenylisoxazole-3-carboxamide]",3.72
12,"O=C(CCCC[C@@H]1SC[C@@H]2NC(=O)N[C@@H]21)Nc1ccc(C(=O)NCCCNC(=O)c2cc(-c3ccccc3)on2)cc1 [Compound 17, N-(3-(4-(5-((3aS,4S,6aR)-2-oxohexahydro-1H-thieno[3,4-d]imidazol-4-yl)pentanamido)benzamido)propyl)-5-phenylisoxazole-3-carboxamide]",1.04
13,"O=C(CCCC[C@@H]1SC[C@@H]2NC(=O)N[C@@H]21)Nc1cccc(C(=O)NCCCNC(=O)c2cc(-c3ccccc3)on2)c1 [Compound 18, N-(3-(3-(5-((3aS,4S,6aR)-2-oxohexahydro-1H-thieno[3,4-d]imidazol-4-yl)pentanamido)benzamido)propyl)-5-phenylisoxazole-3-carboxamide]",1.05
14,"N[C@@H](Cc1ccccc1)C(=O)NCCNC(=O)c1cc(-c2ccccc2)on1 [Compound 23, (S)—N-(2-(2-amino-3-phenylpropanamido)ethyl)-5-phenylisoxazole-3-carboxamide]",0.84
15,"Cn1ccc(C(=O)NCCCNC(=O)c2cc(-c3ccccc3)on2)n1 [Compound 28, N-(3-(1-methyl-1H-pyrazole-3-carboxamido)propyl)-5-phenylisoxazole-3-carboxamide]",3.42
16,"O=C(NCCCNC(=O)c1cc(-c2ccccc2)on1)c1cocn1 [Compound 29, N-(3-(oxazole-4-carboxamido)propyl)-5-phenylisoxazole-3-carboxamide]",3.35

row,SMILES,fold induction at 10 µM
1,"O=C(NCCCNC(=O)c1cnccc1O)c1cc(-c2ccccc2)on1 [Compound 30, N-(3-(4-hydroxynicotinamido)propyl)-5-phenylisoxazole-3-carboxamide]",2.69
2,"O=C(NCCCNC(=O)c1cc(-c2ccccc2)on1)c1ccncc1 [Compound 31, N-(3-(isonicotinamido)propyl)-5-phenylisoxazole-3-carboxamide]",3.51
3,"N[C@@H](Cc1c[nH]c2ccccc12)C(=O)NCCCNC(=O)c1cc(-c2ccccc2)on1 [Compound 32, (S)—N-(3-(2-amino-3-(1H-indol-3-yl)propanamido)propyl)-5-phenylisoxazole-3-carboxamide]",2.7
4,"O=C(NCCCNC(=O)c1cc(-c2ccccc2)on1)c1cscn1 [Compound 33, 5-phenyl-N-(3-(thiazole-4-carboxamido)propyl)isoxazole-3-carboxamide]",3.7
5,"O=C(NCCCNC(=O)c1ncco1)c1cc(-c2ccccc2)on1 [Compound 34, N-(3-(oxazole-2-carboxamido)propyl)-5-phenylisoxazole-3-carboxamide]",2.77
6,"O=C(NCCCNC(=O)c1nccs1)c1cc(-c2ccccc2)on1 [Compound 35, 5-phenyl-N-(3-(thiazole-2-carboxamido)propyl)isoxazole-3-carboxamide]",2.61
7,"O=C(NCCCNC(=O)c1cc(-c2ccccc2)on1)c1ccc(O)c(O)c1 [Compound 36, N-(3-(3,4-dihydroxybenzamido)propyl)-5-phenylisoxazole-3-carboxamide]",2.69
8,"O=C(NCCCNC(=O)c1cc(-c2cccs2)on1)c1ccnc(O)c1 [Compound 37, N-(3-(2-hydroxyisonicotinamido)propyl)-5-(thiophen-2-yl)isoxazole-3-carboxamide]",1.83
9,"Cc1ccc(C(=O)NCCCNC(=O)c2cc(-c3ccccc3)on2)o1 [Compound 38, N-(3-(5-methylfuran-2-carboxamido)propyl)-5-phenylisoxazole-3-carboxamide]",3.37
10,"O=C(NCCCNC(=O)c1cc(-c2cccs2)on1)c1cccnc1 [Compound 39, N-(3-(nicotinamido)propyl)-5-(thiophen-2-yl)isoxazole-3-carboxamide]",4.56
11,"O=C(NCCCNC(=O)c1cc(-c2cccs2)on1)c1cc(Cl)ccn1 [Compound 40, N-(3-(4-chloropicolinamido)propyl)-5-(thiophen-2-yl)isoxazole-3-carboxamide]",1.95
12,"O=C(NCCCNC(=O)c1cc(-c2cccs2)on1)c1ccc(O)cn1 [Compound 41, N-(3-(5-hydroxypicolinamido)propyl)-5-(thiophen-2-yl)isoxazole-3-carboxamide]",2.77
13,"O=C(NCCCNC(=O)c1cncnc1O)c1cc(-c2cccs2)on1 [Compound 42, N-(3-(4-hydroxypyrimidine-5-carboxamido)propyl)-5-(thiophen-2-yl)isoxazole-3-carboxamide]",0.95
14,"COc1ccc(C(=O)NCCCNC(=O)c2cc(-c3cccs3)on2)c(OC)n1 [Compound 43, N-(3-(2,6-dimethoxynicotinamido)propyl)-5-(thiophen-2-yl)isoxazole-3-carboxamide]",1.45
15,"O=C(NCCCNC(=O)c1ncccc1F)c1cc(-c2cccs2)on1 [Compound 44, N-(3-(3-fluoropicolinamido)propyl)-5-(thiophen-2-yl)isoxazole-3-carboxamide]",3.36
16,"O=C(NCCCNC(=O)c1cccc(Br)n1)c1cc(-c2cccs2)on1 [Compound 45, N-(3-(6-bromopicolinamido)propyl)-5-(thiophen-2-yl)isoxazole-3-carboxamide]",3.35

# Same assay, conditions: Homo sapiens, SW-620; inducement of E-cadherin expression in SW620 cells
row,SMILES,EC50
1,"O=C(NCCNC(=O)c1cc(-c2ccccc2)on1)c1cccnc1 [Compound 3, N-(2-(nicotinamido)ethyl)-5-phenylisoxazole-3-carboxamide]",7.1 µM
2,"O=C(NCCCNC(=O)c1cc(-c2cccs2)on1)c1cccnc1 [Compound 39, N-(3-(nicotinamido)propyl)-5-(thiophen-2-yl)isoxazole-3-carboxamide]",5.02 µM

# Same assay, conditions: change in expression level of E-cadherin in response to 10 μM compound, 24 hours, SW620 cells
row,SMILES,fold change SW620 ICW
1,"Nc1ccc(C(=O)NCCCNC(=O)c2cc(-c3ccccc3)on2)cn1 [Compound 14, N-(3-(6-aminonicotinamido)propyl)-5-phenylisoxazole-3-carboxamide]",0.70 fold
